Values quoted from earlier work, collected in patent publication US20240226080A1, “Pharmaceutical Mixture Comprising Amorphous Pitolisant” (Alfred E. Tiefenbacher GmbH & Co. KG, priority 2022, published 2024).
Structures can show the parent of a compound that is named as a salt.

How the values were obtained:
[1] = for Solubility (% w/v) Water room T: room temperature
[2] = 23° C.; listed as oxalate salt

SMILES	Solubility (% w/v) pH 4.5 [1]	Solubility (% w/v) pH 7.4 [1]	Solubility (% w/v) Water room T [1]	aqueous solubility [2] [mg/mL]
Clc1ccc(CCCOCCCN2CCCCC2)cc1 [Hydrogen oxalate, 1-[3-[3-(4-chlorophenyl)propoxy]propyl]-piperidine]	1-3 % w/v	3-10 % w/v	1-3 % w/v	25
Clc1ccc(CCCOCCCN2CCCCC2)cc1 [Monohydrochloride, 1-[3-[3-(4-chlorophenyl)propoxy]propyl]-piperidine]	>100 % w/v	>100 % w/v	>100 % w/v	
